In patent US20110124634A1, “BIOACTIVE COMPOUNDS FOR TREATMENT OF CANCER AND NEURODEGENERATIVE DISEASES” (PONIARD PHARMACEUTICALS, INC., priority 2008, published 2011):

Columns and labels:
Assay type in all cases: cell-based
[1] = system: HSP90 client protein Her2 in SKBR-3 cells; assay: Her-2 degradation assay (Her-2 ELISA) in SKBr-3 cells; settings: Homo sapiens
Description: Most of the compounds synthesized were evaluated for their ability to induce degradation of the HSP90 client protein Her2 in SKBR-3 cells. Selected compounds were evaluated in a fluorescence polarization (FP) assay for their affinity to HSP90.
SKBr-3 cells grown in McCoy's 5a Medium supplemented with 10% fetal bovine serum (FBS) were plated into 12-well plates at 50% confluency. Increasing concentrations of inhibitors were added 24 hours later (cells are 65-70% confluent) and incubated overnight for 18 hours. The wells were washed with 2 ml of phosphate buffered saline (PBS), and 50 ul of trypsin was added to each well. After trypsinization was complete, 150 ul of FBS was added to each well. Then 200 ul of cells were transferred to 96-well plates and plates were centrifuged at 1200 rpm for 2 minutes using a tabletop centrifuge. The cells were washed once with 250 ul PBS before being lysed with 100 ul of 50 mM Tris (pH 7.4), 0.1% NP-40 lysis buffer. Protein concentrations of clarified lysates were determined using the BCA Assay (Calbiochem) according to the manufacturer's instructions. 2 ug of each lysate was analyzed in the human sp 185 Her-2 ELISA (Bender Medsystems) according to the manufacturer's instructions. ELISA plates were read at 450 nm using a multiwell plate spectrophotometer. Background was determined by measuring the Abs 450 nm of wells with no lysate added. The background value was subtracted from all values. Absorbance 450 nm values for each inhibitor were plotted against the log 10 inhibitor concentration, and IC50 values were calculated using a nonlinear least-square curve fitting program in Prism 5.

MCF-7 = assay: MTS assay (cytotoxicity), growth inhibition of MCF-7; settings: Homo sapiens, MCF7, 120 h, Table 5, series III, 5 days, read-out: Growth Inhibition (IC50) MCF-7
Description: (§1) Cells were seeded in 96-well plates at 2000 cells/well in a final culture volume of 100 ul for 24 hours before the addition of 25 ul of increasing concentrations of inhibitors that was incubated for 5 days. Viable cell number was determined using the CellTiter 96 AQueous One Solution Cell Proliferation Assay (Promega). Plates were read at 490 nm absorbance 2-4 hours after addition of the MTS reagent using a multiwell plate spectrophotometer. Background was determined by measuring the Abs 490 nm of cell culture medium and MTS in the absence of cells. The background value was subtracted from all values. Absorbance 490 nm values for each inhibitor were plotted against the log 10 inhibitor concentration, and IC50 values were calculated using a nonlinear least-square curve fitting program in Prism 5.

SKBR-3 = assay: MTS assay (cytotoxicity), growth inhibition of SKBR-3; settings: Homo sapiens, SK-BR-3, 120 h, Table 5, series III, 5 days, read-out: Growth Inhibition (IC50) SKBR-3
Description: as §1

BT474 = assay: MTS assay (cytotoxicity), growth inhibition of BT474; settings: Homo sapiens, BT-474, 120 h, Table 5, series III, 5 days, read-out: Growth Inhibition (IC50) BT474
Description: as §1

[2] = SK-BR-3, Table 5, series III, 18 hours

Row | SMILES | IC50 ([1]; SK-BR-3, Table 3, 18 hours, means of three independent experiments) [nM] | IC50 [1, 2] [nM] | IC50 (MCF-7) [nM] | IC50 (SKBR-3) [nM] | IC50 (BT474) [nM]
1 | COc1cc(CN2CC(=O)N(CC(C)C)c3c(Cl)nc(N)nc32)c(Cl)c(OC)c1OC [Example I-36] | > 5000 |  |  |  | 
2 | CCN(CC)CCCNC(=O)c1c[nH]c(/C=C2\C(=O)N(Cc3ncc(C)c(OC)c3C)c3nc(N)nc(Cl)c32)c1 [III-29, (Z)-5-((2-Amino-4-chloro-7-((4-methoxy-3,5-dimethylpyridin-2-yl)methyl)-6-oxo-6,7-dihydro-5H-pyrrolo[2,3-d]pyrimidin-5-ylidene)methyl)-N-(3-(diethylamino)propyl)-1H-pyrrole-3-carboxamide] |  | 70 | 410 | 20 | 30
3 | COc1c(C)cnc(CN2C(=O)/C(=C\c3cc(C(=O)NCCN4CCC(=O)CC4)c[nH]3)c3c(Cl)nc(N)nc32)c1C [III-36, (Z)-5-((2-Amino-4-chloro-7-((4-methoxy-3,5-dimethylpyridin-2-yl)methyl)-6-oxo-6,7-dihydro-5H-pyrrolo[2,3-d]pyrimidin-5-ylidene)methyl)-N-(2-(4-oxopiperidin-1-yl)ethyl)-1H-pyrrole-3-carboxamide] |  | 8 | 410 | 0.9 | 3
4 | CCN(CC)CCNC(=O)c1c[nH]c(/C=C2\C(=O)N(Cc3nc(C)c(C)s3)c3nc(N)nc(Cl)c32)c1 [III-69, (Z)-5-((2-Amino-4-chloro-7-((4,5-dimethylthiazol-2-yl)methyl)-6-oxo-6,7-dihydro-5H-pyrrolo[2,3-d]pyrimidin-5-ylidene)methyl)-N-(2-(diethylamino)ethyl)-1H-pyrrole-3-carboxamide] |  | 10 | 770 | 10 | 60
5 | Cc1nc(CN2C(=O)/C(=C\c3cc(C(=O)NCCN4CCOCC4)c[nH]3)c3c(Cl)nc(N)nc32)sc1C [III-70] |  | 40 | 320 | 20 | 80
6 | COc1c(C)cnc(CN2C(=O)/C(=C\c3nc(NC(=O)C(C)C)c[nH]3)c3c(Cl)nc(N)nc32)c1C [III-71, (Z)-N-(2-((2-Amino-4-chloro-7-((4-methoxy-3,5-dimethylpyridin-2-yl)methyl)-6-oxo-6,7-dihydro-5H-pyrrolo[2,3-d]pyrimidin-5-ylidene)methyl)-1H-imidazol-4-yl)isobutyramide] |  | 50 | 370 | 30 | 80
7 | CCN(CC)CCCc1ccc(/C=C2\C(=O)N(Cc3ncc(C)c(OC)c3C)c3nc(N)nc(Cl)c32)[nH]1 [III-86] |  | 310 | 1370 | 1130 | 760
8 | COc1c(C)cnc(CN2C(=O)/C(=C\c3cc(C(=O)CN4CCOCC4)c[nH]3)c3c(Cl)nc(N)nc32)c1C [III-93, (Z)-2-Amino-4-chloro-7-((4-methoxy-3,5-dimethylpyridin-2-yl)methyl)-5-((4-(2-morpholinoacetyl)-1H-pyrrol-2-yl)methylene)-5H-pyrrolo[2,3-d]pyrimidin-6(7H)-one] |  | 20 | 130 | 10 | 60
9 | CCN(CC)CC(=O)c1c[nH]c(/C=C2\C(=O)N(Cc3ncc(C)c(OC)c3C)c3nc(N)nc(Cl)c32)c1 [III-95, (Z)-2-Amino-4-chloro-5-((4-(2-(diethylamino)acetyl)-1H-pyrrol-2-yl)methylene)-7-((4-methoxy-3,5-dimethylpyridin-2-yl)methyl)-5H-pyrrolo[2,3-d]pyrimidin-6(7H)-one] |  | 10 | 710 | 2 | 20
10 | COc1c(C)cnc(CN2C(=O)/C(=C\c3[nH]c(C)c(C(=O)NCCN4CCOCC4)c3C)c3c(Cl)nc(N)nc32)c1C [III-103, (Z)-5-((2-Amino-4-chloro-7-((4-methoxy-3,5-dimethylpyridin-2-yl)methyl)-6-oxo-6,7-dihydro-5H-pyrrolo[2,3-d]pyrimidin-5-ylidene)methyl)-2,4-dimethyl-N-(2-morpholinoethyl)-1H-pyrrole-3-carboxamide] |  | 70 | 810 | 40 | 110
